From PMC8550792, “Evolution of kinase polypharmacology across HSP90 drug discovery” (Cell Chemical Biology, 2021)

Legend:
Assay in all cases: biochemical
Format in all cases: biochemical
[1] = target: T1, 382 unique human kinases (Homo sapiens, UniProt O75582); settings: kinase MSK1/RPS6KA5, compound 10 uM; for remaining activity at 10 µM: read-out: % Enzyme Activity (relative to DMSO controls)
T1 construct: purchased Reaction Biology (HotSpot contract assay)

[2] = target: T2, 382 unique human kinases (Homo sapiens, UniProt P30530, R499C); settings: AXL (R499C), 10 uM; for remaining activity at 10 µM: read-out: % Enzyme Activity (relative to DMSO controls)
T2 construct: purchased Reaction Biology (HotSpot contract assay)
T2 sequence (P30530 26-894 R499C): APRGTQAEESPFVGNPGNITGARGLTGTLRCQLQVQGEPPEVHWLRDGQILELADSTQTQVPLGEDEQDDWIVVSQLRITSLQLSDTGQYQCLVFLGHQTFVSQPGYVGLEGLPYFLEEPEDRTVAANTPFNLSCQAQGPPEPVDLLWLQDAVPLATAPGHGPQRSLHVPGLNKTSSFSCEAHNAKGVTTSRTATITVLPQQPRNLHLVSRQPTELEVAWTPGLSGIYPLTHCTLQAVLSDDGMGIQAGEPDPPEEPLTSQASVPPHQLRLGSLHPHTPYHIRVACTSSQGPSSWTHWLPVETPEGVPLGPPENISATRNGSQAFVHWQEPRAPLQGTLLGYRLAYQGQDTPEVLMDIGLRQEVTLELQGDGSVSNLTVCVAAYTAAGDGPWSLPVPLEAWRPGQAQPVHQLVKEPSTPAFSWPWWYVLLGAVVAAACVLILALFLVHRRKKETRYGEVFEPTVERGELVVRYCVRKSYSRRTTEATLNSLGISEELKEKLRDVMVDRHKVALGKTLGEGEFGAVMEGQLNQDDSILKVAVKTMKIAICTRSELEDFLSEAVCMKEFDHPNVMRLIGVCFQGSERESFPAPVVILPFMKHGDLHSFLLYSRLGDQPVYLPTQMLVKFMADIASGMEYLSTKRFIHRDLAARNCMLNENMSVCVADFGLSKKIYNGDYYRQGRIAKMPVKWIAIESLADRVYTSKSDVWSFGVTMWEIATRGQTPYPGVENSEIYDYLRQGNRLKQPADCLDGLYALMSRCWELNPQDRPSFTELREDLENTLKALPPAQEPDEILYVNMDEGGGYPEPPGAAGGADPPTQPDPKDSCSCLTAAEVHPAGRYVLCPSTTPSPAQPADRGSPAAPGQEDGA

[3] = target: T3, 382 unique human kinases (Homo sapiens, UniProt Q15303); settings: kinase ERBB4/HER4, compound 10 uM; for remaining activity at 10 µM: read-out: % Enzyme Activity (relative to DMSO controls)
T3 construct: purchased Reaction Biology (HotSpot contract assay)
T3 sequence (Q15303 26-1308): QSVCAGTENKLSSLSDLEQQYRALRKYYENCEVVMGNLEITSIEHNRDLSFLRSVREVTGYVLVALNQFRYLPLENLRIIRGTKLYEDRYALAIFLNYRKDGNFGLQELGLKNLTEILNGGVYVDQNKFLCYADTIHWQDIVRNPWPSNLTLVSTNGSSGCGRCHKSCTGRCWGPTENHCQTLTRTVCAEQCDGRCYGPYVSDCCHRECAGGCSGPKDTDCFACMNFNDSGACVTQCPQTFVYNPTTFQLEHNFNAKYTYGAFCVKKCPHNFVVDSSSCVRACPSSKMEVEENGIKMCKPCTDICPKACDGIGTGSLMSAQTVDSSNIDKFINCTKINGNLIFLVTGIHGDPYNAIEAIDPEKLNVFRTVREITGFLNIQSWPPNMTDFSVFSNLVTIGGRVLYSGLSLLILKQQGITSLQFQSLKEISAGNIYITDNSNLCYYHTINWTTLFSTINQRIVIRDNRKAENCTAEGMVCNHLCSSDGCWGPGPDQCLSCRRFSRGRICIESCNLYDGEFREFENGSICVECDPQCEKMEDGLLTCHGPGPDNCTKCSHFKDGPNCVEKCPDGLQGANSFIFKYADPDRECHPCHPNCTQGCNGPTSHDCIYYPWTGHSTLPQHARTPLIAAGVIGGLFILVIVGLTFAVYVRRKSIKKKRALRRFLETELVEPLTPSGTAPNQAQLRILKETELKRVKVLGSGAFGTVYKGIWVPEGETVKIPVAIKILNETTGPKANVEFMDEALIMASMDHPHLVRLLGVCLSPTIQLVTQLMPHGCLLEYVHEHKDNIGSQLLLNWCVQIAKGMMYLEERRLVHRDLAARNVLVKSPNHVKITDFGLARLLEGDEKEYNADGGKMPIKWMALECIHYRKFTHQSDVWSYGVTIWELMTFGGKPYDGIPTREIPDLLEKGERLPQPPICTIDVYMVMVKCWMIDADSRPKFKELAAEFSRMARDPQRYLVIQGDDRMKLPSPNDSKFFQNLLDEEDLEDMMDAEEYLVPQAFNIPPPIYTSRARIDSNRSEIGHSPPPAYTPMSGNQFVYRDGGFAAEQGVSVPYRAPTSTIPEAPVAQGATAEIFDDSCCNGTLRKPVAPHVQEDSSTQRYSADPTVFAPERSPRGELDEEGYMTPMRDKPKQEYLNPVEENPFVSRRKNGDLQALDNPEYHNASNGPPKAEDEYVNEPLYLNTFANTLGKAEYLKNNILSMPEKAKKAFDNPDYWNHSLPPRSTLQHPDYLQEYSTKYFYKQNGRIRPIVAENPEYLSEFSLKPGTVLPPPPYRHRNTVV

[4] = target: T4, 382 unique human kinases (Homo sapiens, UniProt P22607, G697C); settings: FGFR3 (G697C), 10 uM; for remaining activity at 10 µM: read-out: % Enzyme Activity (relative to DMSO controls)
T4 construct: purchased Reaction Biology (HotSpot contract assay)
T4 sequence (P22607 23-806 G697C): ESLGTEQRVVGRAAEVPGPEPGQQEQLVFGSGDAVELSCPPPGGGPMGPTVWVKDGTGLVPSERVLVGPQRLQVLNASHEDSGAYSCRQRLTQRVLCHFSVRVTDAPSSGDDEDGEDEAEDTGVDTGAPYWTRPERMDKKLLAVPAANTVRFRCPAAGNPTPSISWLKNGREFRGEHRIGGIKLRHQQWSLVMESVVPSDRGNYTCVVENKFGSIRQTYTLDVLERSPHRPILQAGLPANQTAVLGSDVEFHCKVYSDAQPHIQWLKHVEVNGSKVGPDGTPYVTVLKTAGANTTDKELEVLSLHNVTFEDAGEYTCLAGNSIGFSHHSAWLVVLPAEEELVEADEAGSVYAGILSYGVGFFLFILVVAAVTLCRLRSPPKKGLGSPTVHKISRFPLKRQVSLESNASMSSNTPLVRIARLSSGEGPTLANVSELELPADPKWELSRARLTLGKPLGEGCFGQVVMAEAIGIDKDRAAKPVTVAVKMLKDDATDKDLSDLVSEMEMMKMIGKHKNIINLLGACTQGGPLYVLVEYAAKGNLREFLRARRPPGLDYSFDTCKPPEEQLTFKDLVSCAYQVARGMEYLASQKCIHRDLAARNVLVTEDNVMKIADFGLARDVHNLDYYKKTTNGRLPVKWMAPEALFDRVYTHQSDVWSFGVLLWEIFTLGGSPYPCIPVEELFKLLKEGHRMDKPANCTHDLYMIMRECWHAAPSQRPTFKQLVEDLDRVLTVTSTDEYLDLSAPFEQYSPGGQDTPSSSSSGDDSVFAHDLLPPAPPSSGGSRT

[5] = target: T5, 382 unique human kinases (Homo sapiens, UniProt Q13164); settings: kinase ERK5/MAPK7, compound 10 uM; for remaining activity at 10 µM: read-out: % Enzyme Activity (relative to DMSO controls)
T5 construct: purchased Reaction Biology (HotSpot contract assay)
T5 sequence (Q13164 whole entry): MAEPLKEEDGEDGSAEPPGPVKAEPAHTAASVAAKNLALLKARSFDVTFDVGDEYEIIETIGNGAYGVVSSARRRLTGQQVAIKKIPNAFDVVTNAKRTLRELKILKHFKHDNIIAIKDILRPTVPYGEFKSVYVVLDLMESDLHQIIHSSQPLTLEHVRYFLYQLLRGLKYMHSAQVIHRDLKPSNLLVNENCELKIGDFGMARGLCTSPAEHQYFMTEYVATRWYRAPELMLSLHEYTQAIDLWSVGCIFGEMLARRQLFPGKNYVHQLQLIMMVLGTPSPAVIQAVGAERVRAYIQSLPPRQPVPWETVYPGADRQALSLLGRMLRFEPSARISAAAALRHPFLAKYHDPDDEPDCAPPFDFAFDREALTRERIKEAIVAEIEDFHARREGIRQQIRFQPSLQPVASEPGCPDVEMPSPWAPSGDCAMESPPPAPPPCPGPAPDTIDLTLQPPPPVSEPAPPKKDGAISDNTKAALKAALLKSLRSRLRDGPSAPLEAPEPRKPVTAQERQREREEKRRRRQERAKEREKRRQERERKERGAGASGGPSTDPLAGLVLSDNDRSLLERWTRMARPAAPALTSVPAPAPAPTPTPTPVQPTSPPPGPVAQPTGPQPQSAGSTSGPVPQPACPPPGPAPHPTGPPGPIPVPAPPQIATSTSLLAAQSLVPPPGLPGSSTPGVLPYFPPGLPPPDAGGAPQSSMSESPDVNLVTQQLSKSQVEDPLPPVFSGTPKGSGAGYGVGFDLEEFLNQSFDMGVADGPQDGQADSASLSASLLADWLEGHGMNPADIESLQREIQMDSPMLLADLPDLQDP

[6] = target: T6, 382 unique human kinases (Homo sapiens, UniProt P07949, R749T); settings: RET (R749T), 10 uM; for remaining activity at 10 µM: read-out: % Enzyme Activity (relative to DMSO controls)
T6 construct: purchased Reaction Biology (HotSpot contract assay)
T6 sequence (P07949 29-1114 R749T): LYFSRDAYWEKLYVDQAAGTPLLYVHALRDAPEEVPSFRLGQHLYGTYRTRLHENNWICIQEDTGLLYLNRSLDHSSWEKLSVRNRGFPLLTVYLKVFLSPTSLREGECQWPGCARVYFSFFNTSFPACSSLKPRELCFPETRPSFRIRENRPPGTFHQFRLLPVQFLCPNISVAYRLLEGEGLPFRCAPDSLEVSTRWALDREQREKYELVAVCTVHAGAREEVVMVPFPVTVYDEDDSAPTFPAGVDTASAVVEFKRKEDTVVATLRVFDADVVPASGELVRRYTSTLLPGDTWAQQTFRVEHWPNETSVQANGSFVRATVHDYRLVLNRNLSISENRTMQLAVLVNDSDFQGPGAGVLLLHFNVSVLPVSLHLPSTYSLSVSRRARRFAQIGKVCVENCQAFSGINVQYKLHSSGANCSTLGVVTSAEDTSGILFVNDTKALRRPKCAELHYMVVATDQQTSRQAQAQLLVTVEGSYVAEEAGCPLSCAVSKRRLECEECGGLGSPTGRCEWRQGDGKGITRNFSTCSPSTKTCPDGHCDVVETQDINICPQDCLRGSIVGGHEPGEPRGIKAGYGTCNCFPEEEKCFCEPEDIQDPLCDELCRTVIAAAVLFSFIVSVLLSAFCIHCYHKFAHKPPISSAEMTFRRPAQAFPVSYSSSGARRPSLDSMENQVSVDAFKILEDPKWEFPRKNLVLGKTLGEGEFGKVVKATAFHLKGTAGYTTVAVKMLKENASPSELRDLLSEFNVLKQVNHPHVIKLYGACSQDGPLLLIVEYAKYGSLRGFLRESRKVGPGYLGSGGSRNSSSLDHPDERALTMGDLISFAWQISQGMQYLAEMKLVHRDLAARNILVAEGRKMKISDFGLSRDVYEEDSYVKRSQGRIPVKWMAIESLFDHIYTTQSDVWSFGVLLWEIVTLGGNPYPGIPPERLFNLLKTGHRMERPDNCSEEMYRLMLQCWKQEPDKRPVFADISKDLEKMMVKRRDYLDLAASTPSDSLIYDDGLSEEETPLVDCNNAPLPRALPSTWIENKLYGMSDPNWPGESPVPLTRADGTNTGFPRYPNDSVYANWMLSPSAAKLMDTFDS

[7] = target: T7, 382 unique human kinases (Homo sapiens, UniProt Q9BZL6, G870E); settings: PKD2 (G870E), [ATP] 30 µM, compound 10 uM; for remaining activity at 10 µM: read-out: % Enzyme Activity (relative to DMSO controls)
T7 construct: purchased Reaction Biology (HotSpot contract assay)
T7 sequence (Q9BZL6 1-878 G870E): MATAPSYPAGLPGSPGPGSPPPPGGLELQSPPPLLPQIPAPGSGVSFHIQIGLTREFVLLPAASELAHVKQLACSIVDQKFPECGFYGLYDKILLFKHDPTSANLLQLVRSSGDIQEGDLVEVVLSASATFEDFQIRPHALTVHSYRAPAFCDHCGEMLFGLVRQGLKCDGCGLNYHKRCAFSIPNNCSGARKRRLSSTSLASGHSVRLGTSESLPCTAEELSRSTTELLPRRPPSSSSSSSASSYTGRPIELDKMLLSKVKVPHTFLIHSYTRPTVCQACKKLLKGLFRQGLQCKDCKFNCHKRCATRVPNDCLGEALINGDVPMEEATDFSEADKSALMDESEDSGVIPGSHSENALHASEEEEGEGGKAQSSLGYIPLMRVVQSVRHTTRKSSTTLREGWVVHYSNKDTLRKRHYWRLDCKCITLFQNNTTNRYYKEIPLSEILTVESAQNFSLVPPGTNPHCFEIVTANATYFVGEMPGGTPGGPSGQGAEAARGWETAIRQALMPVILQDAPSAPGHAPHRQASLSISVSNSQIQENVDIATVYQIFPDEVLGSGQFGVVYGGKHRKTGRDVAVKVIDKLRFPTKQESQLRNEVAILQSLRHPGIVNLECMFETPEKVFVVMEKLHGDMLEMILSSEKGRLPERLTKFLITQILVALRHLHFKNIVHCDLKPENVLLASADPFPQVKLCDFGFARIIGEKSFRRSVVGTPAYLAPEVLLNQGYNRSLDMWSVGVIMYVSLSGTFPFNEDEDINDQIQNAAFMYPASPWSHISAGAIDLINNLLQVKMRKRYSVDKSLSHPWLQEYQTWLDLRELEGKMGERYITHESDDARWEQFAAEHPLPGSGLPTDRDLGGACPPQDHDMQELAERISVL

[8] = target: T8, 382 unique human kinases (Homo sapiens, UniProt P41743); settings: PKCiota, 10 uM; for remaining activity at 10 µM: read-out: % Enzyme Activity (relative to DMSO controls)
T8 construct: purchased Reaction Biology (HotSpot contract assay)
T8 sequence (P41743 1-596): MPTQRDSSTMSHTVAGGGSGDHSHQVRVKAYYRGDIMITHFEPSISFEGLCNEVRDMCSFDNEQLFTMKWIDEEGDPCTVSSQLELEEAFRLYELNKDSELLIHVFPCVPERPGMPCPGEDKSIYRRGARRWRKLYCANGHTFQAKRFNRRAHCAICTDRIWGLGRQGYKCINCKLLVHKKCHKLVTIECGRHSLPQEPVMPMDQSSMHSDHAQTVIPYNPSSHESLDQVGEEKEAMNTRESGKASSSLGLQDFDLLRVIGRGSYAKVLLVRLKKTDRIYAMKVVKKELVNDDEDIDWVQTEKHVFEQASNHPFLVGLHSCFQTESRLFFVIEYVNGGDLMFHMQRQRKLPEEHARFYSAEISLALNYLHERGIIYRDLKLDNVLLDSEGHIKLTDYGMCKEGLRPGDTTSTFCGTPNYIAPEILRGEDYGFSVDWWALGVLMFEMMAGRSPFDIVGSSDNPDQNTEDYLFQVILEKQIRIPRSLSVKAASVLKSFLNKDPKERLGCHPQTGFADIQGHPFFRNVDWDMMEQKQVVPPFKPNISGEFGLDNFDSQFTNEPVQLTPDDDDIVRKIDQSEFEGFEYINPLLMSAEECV

T1 sequence (O75582 whole entry): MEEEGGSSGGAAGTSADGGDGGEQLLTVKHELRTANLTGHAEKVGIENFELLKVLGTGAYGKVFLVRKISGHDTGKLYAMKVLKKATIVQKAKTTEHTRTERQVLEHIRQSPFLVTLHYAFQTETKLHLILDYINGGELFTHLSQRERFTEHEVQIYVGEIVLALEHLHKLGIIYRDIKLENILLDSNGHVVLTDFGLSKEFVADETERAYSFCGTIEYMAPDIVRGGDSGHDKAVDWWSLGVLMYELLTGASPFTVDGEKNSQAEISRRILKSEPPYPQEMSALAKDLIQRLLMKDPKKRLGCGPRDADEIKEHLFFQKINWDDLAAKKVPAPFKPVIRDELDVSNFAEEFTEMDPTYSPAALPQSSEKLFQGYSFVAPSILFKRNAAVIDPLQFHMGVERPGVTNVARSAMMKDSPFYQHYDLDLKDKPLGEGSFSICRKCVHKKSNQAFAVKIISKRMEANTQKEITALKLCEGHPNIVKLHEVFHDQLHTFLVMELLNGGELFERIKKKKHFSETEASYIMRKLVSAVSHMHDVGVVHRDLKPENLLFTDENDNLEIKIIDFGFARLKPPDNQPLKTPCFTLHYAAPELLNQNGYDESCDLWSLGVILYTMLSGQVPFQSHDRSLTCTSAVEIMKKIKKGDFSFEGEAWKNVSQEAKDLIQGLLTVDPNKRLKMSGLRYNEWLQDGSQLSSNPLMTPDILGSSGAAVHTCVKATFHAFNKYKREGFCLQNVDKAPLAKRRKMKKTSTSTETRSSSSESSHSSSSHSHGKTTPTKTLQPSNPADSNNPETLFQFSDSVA

| Structure (SMILES) | remaining activity at 10 µM [1] | remaining activity at 10 µM [2] | remaining activity at 10 µM [3] | remaining activity at 10 µM [4] | remaining activity at 10 µM [5] | remaining activity at 10 µM [6] | remaining activity at 10 µM [7] | remaining activity at 10 µM [8] | % Enzyme Activity (relative to DMSO controls) [6] | % Enzyme Activity (relative to DMSO controls) [7] | % Enzyme Activity (relative to DMSO controls) [8] | % Enzyme Activity (relative to DMSO controls) [1] | % Enzyme Activity (relative to DMSO controls) [2] | % Enzyme Activity (relative to DMSO controls) [3] | % Enzyme Activity (relative to DMSO controls) [4] | % Enzyme Activity (relative to DMSO controls) [5] |
| --- | --- | --- | --- | --- | --- | --- | --- | --- | --- | --- | --- | --- | --- | --- | --- | --- |
| CC(C)c1cc(-c2n[nH]c(=O)n2-c2ccc3c(ccn3C)c2)c(O)cc1O [Ganetespib (STA9090)] | 81% | 66.4% | 88.8% | 61.9% | 91.3% | – | – | – | – | – | – | – | – | – | – | – |
| CC(C)c1cc(-c2n[nH]c(=O)n2-c2ccc3c(ccn3C)c2)c(O)cc1O [Ganetespib] | – | – | – | – | – | 106% | 59.7% | 94.9% | – | – | – | – | – | – | – | – |
| CCNC(=O)c1noc(-c2cc(C(C)C)c(O)cc2O)c1-c1ccc(CN2CCOCC2)cc1 [Luminespib] | – | – | – | – | – | 98.4% | 104% | 96% | 97.79% | 103.84% | 94.98% | – | – | – | – | – |
| CCNC(=O)c1noc(-c2cc(C(C)C)c(O)cc2O)c1-c1ccc(CN2CCOCC2)cc1 [Luminespib (AUY-922)] | 111% | 98.8% | 92.8% | 104% | 86.6% | – | – | – | – | – | – | 109.40% | 96.57% | 92.70% | 102.74% | 86.48% |
